Test results reported in the NIST ThermoML archive (doi:10.1021/je200226z).
Numbers after ± are expanded uncertainties.

Test: mn = molality of the nth substance listed, in mol/kg
Settings: 298.15 K, 101 kPa, Liquid, Westphal Balance

Compound | mass density (m1 = 0.05) [kg/m3] | mass density (m1 = 0.1) [kg/m3] | mass density (m1 = 0.15) [kg/m3] | mass density (m1 = 0.25) [kg/m3] | mass density (m1 = 0.5) [kg/m3] | mass density (m1 = 0.75) [kg/m3] | mass density (m1 = 1) [kg/m3] | mass density (m1 = 0.02) [kg/m3] | mass density (m1 = 0.06) [kg/m3] | mass density (m1 = 0.2) [kg/m3]
C=CCn1cc[n+](C)c1.[Cl-] [1-allyl-3-methylimidazolium chloride] + O | 998.1 ± 0.14 | 999 ± 0.14 | 999.8 ± 0.14 | 1001.3 ± 0.14 | 1004.8 ± 0.14 | 1007.8 ± 0.13 | 1010.3 ± 0.12 | – | – | –
OC[C@H]1O[C@@](CO)(O[C@H]2O[C@H](CO)[C@@H](O)[C@H](O)[C@H]2O)[C@@H](O)[C@@H]1O [D-sucrose] + O | – | 1009.9 ± 0.14 | 1016.06 ± 0.14 | 1027.95 ± 0.14 | – | – | – | 999.72 ± 0.14 | 1004.87 ± 0.14 | 1022.12 ± 0.14
